Measurements: patent US20190352638A1, “THERAPEUTIC MODULATION OF C-FOS IN THE EYE” (Children's Medical Center Corporation, priority 2016, published 2019)

Key:
AP-1 = details: without activating transcription of retinoic acid response element; Fanjul et al. 1994; cited from earlier work
[1] = system: c-fos and its target genes (Mmp10, Il6, IlIb and Tnf); test: Quantitative RT-PCR of retinal mRNA; type: in vivo, mouse; details: oral gavage 1 mg/kg daily P5 to P15; Vldlr^−/− retinas
Procedure: (§1) All animal studies were performed according to protocols approved by the Institutional Animal Care and Use Committee at the Boston Children's Hospital. Vldlr^+/− (heterozygous) mice from Jackson Laboratory (Stock #002529) were bred to generate homozygous and wild type littermates. SR11302 (TOCRIS, Cat. 2476) was dissolved in corn oil. Vldlr^−/− pups were orally gavaged with SR11302 or corn oil as control at a dose of 1 mg/kg body weight daily from P5 to P15. P16 retinas were collected for PCR and neovascularization analysis.
Total RNA was extracted from mouse retinas using RNeasy kit (Qiagen) and reverse-transcribed with SuperScript® III Reverse Transcriptase (Thermo Fisher) to generate cDNA. Quantitative PCR was performed using a 7300 system (Applied Biosystems) with KAPA SYBR FAST qPCR Kits (Kapa Biosystems) using Rhodopsin, Pecam, Vldlr, CD68, CD11b, CD45, c-Fos, Il6, Il11b, Tnf, mmp10, Socs3, uPA, c-Jun, VEGF120, VEGF164, VEGF188 primers.
Subretinal injection into P0 neonate eyes was performed as previously described (Matsuda, T., et al., Proc. Nat. Acad. Sci. USA 101, 16-22 (2004), and Wang, S., et al., Developmental cell 30, 513-527 (2014)) under a dissection microscope. P0 Vldlr^−/− or wild type pups were anesthetized on ice for several minutes. The eyelid was prepped with Betadine, followed by water, then 70% ethanol using cotton swabs. […]

Vldlr^−/− mice = test: Neovascularization analysis (lesion number and size) in Vldlr^−/− retina whole mounts; type: in vivo, mouse
Procedure: as §1
Vldlr^−/− and wild type retina whole mounts were stained with isolectin IB4 and imaged with AxioObserver Z1 microscope (Zeiss) with a monochrome digital camera (AxioCam MRm; Zeiss) focusing on the terminal end of lesions on the RPE layer (usually at P16), and individual images were merged to create one retinal image using the automated merge function (mosaiX; Zeiss) in the software (AxioVision 4.6.3.0; Zeiss). Image J was used for quantification of subretinal neovascularization lesion number and areas in Vldlr^−/− retinas (National Institutes of Health, imagej.nih.gov/ij/) with designed plugins adapted from the method used to measure retinal neovascularization (SWIFT_NV) in the OIR model (Stahl, A. et al., Angiogenesis 12, 297-301 (2009)) which use a user-designated threshold to mark lesion structures that clearly stand out from background fluorescence of normal vessels, and can automatically remove small artifacts by selecting objects with a minimum size of 100 pixels. Other larger artifacts such as occasional cellular debris or retinal periphery with hyperfluorescence can be manually excluded from quantification. Lesion numbers and areas were quantified with researchers masked to the identity of samples.
At P16, mice were anesthetized, the eyes were enucleated and fixed in 4% paraformaldehyde followed by dissection and staining of the retinas with fluoresceinated isolectin IB4 (Invitrogen) to visualize subretinal neovascularization in whole mounted retinas. 3D reconstructed images were taken with confocal microscopy (Leica TCS SP2 AOBS) and z-stacks were 3D reconstructed using Volocity software (Perkin Elmer).
Subretinal injection into P0 neonate eyes was performed as previously described (Matsuda, T., et al., Proc. Nat. Acad. Sci. USA 101, 16-22 (2004), and Wang, S., et al., Developmental cell 30, 513-527 (2014)) under a dissection microscope. P0 Vldlr^−/− or wild type pups were anesthetized on ice for several minutes. The eyelid was prepped with Betadine, followed by water, then 70% ethanol using cotton swabs. A blade was used to gently cut open the eyelid. The injection needle was inserted into the eyeball through the incision until slight resistance was felt. Approximately 0.5 μl solution containing siRNA/siControl or AAV2/Control (10^12-10^13 gc/ml) was introduced into the subretinal space using a pulled angled glass pipette controlled by a FemtoJet (Eppendorf). The left eyes were uninjected for within-animal controls. Curved forceps were used to slowly close the eyelid. Mice were placed on a circulating water blanket for warmth. The retinas were collected at P12 for PCR assay and P16 for whole mount analysis.

[2] = oral gavage 1 mg/kg daily P5 to P15, Vldlr^−/− mice
[3] = oral gavage, Vldlr^−/− retinas vs controls

SMILES: CC1=C(/C=C/C(=C/C=C/C(C)=C/C(=O)O)c2ccc(C)cc2)C(C)(C)CCC1 [SR11302, (E,E,Z,E)-3-Methyl-7-(4-methylphenyl)-9-(2,6,6-trimethyl-1-cyclohexen-1-yl)-2,4,6,8-nonatetraenoic acid]
- AP-1 activity (AP-1): specifically inhibits
- c-FOS target genes (Il6, IlIb and Tnf) mRNA [1]: reduced
- c-fos expression itself [1]: without influencing
- lesion size decreased (Vldlr^−/− mice; [2]): 40%
- total lesion number reduced (Vldlr^−/− mice; [2]): 48%
- neovascularization (in words) (Vldlr^−/− mice; [3]): inhibited
- total lesion number (in words) (Vldlr^−/− mice; [3]): reduced
- total lesion size (in words) (Vldlr^−/− mice; [3]): reduced
